Measured values from patent US20110071094A1, “(D)-ALLOSE INDUCING PROGRAMMED CELL DEATH IN HORMONE REFRACTORY PROSTATE CANCER LINES” (INDUSTRY-ACADEMIC COOPERATION FOUDATION, GYEONGSANG …, priority 2008, published 2011).

Tested on: Bcl-2/Bax ratio
Experiment: Calculation of Bcl-2/Bax ratio from densitometry of protein bands
Type: cell-based, human
Conditions: 72 h, 0.896 at 0 Mm
Experimental: After 0, 20 and 40 mM of D-allose treatments for 72 h, DU145 cell line (1×10^6 cells in triplicate culture plates) was harvested into cell lysis buffer (Cell Signaling, Danvers, Mass., USA) supplemented with 1 mM PMSF. The cells were then sonicated, centrifuged and protein concentration was measured by Bradford assay with the Bio-Rad protein assay solution using bovine serum albumin (BSA) as standard. Proteins (30 μg) were separated on a 12.5% SDS-PAGE under reducing conditions and transferred onto a PVDF membrane (Santa Cruz Biotechnology, Santa Cruz, Calif., USA). Prestained protein marker, broad range: 6-175 kDa (New England Biolabs Inc., Ipswich, Mass., USA) run in parallel for detection of the molecular weights of the proteins. […] Membrane was probed with a goat derived horseradish peroxidase-conjugated anti-rabbit IgG (1:1000; Santa Cruz Biotechnology, Santa Cruz, Calif., USA), and proteins were detected by the enhanced chemiluminescence (ECL) detection system according to the vendor's protocol (Amersham Biosciences, Piscataway, N.J., USA) followed by X-ray exposure. […] Bcl-2/bax ratios of D-allose treated groups were calculated on the basis of the densitometric analysis of the corresponding protein bands and compared the values with that of the untreated control.

## O=C[C@H](O)[C@H](O)[C@H](O)[C@H](O)CO [D-allose]
DU145, 20 Mm
  Bcl-2/Bax ratio: 0.335
DU145, 40 Mm
  Bcl-2/Bax ratio: 0.126
